Test results reported in US7235299B2, “Beads of a phenolic compound and a method of obtaining same” (Rhodia Chimie, priority 2002, dated 2007).

Columns and labels:
[1] = methyl methacrylate at 20° C.
[2] = acrylic acid at 20° C.

With `Oc1ccc(O)cc1` [crystalline hydroquinone, hydroquinone] as the compound, how does the “dissolution time in methyl methacrylate” value [1] read?
The value was 3 min.

What about the “dissolution time in acrylic acid” value [2] of the same compound?
The value was 10 min.
